The results in this text go back to patent EP4624457A1, “I[…] DERIVATIVES, I[…] NEURODEGENERATIVE DISEASES” (Centre National de la Recherche Scientifique, priority 2024, dated 2025).

What all share (assay): Cell viability / proliferation assay (CellTiter Glo luminescence, 72 h)
Common to all, as to assay type: cell-based
A general note: ATP-based viability assays read luminescence as a measure of living cells.

Data set [1] has as its system A2780 ovarian carcinoma cells. The method, then:
(§1) • Figure 1 represents the chemical structure of ingrilimine according to compound (Illa) formula. • Figure 2 represents the cytotoxic activity of ingrilimine. A2780 ovarian and HT29 colorectal carcinoma cells were grown in RPMI 1640 supplemented with 10% fetal calf serum (FCS) and 1% glutamine. U87-MG glioblastoma cells were grown in Dulbecco minimal essential medium containing 4.5 g/L glucose, 10% FCS and 1% glutamine at 37 °C in a humidified atmosphere containing 5% CO2. For IC50 determination, the cells were seeded in 96-well plates (3 × 10^3 cells/well) containing 90 µL of growth medium. After 24 h of culture, the cells were treated with ingrilimine at 10 different final concentrations. Cell viability was determined by luminescence after 72 h incubation. (a) Effect of ingrilimine on A2780 ovarian carcinoma cells. (b) Effect of ingrilimine on U87-MG glioblastoma cells. (c) Effect of ingrilimine on U87-MG glioblastoma cells • Figure 3a-3f represent the mitochondrial dysfunction provoked by ingrilimine. HCT116 cells were treated with ingrilimine in the range of […] for 24h and 48h. Sector Q normal cells that accumulated the JC-1 dye (fluorescence emission 590 nm). […] (a) Non-treated cells incubated with the carrier (DMSO) for 24 h. (b) HCT116 cells incubated with […] ingrilimine for 24 h. (c) HCT116 cells incubated with 250 nM ingrilimine for 24 h. (d) Non-treated cells incubated with the carrier (DMSO) for 48 h. (e) HCT116 cells incubated with […] ingrilimine for 48 h. (f) HCT116 cells incubated with 250 nM ingrilimine for 48. Changes in fluorescence emission were recorded by flow cytometry using the JC-1 mithocondrial membrane potential-dependent fluorescent dye. NT = non-treated cells; IngX = ingrilimine. • Figure 4a-4f represents phosphatidylserine exposure provoked by ingrilimine. A2780 cancer cells were incubated with ingrilimine in the range of 10-500 nM before staining with FITC-Annexin V and propidium iodide. Quadrants D1 and D2 with dead or necrotic cells, quadrant D3 with normal cells and quadrant D4 with apoptotic cells following phosphatidylserine exposure. (a) Non-treated A2780 cells incubated with the carrier (DMSO) for 24h. (b) A2780 cells incubated with 10 nM ingrilimine for 24 h. (c) A2780 cells incubated with 250 nM ingrilimine for 24 h. (d) Non-treated A2780 cells incubated with the carrier (DMSO) for 48 h. (e) A2780 cells incubated with 10 nM ingrilimine for 48 h. (f) A2780 cells incubated with 250 nM ingrilimine for 48. […] exposure in A2780 cell was quantified by flow cytometry using FITC-Annexin V. Dead or necrotic cells were detected using the vital dye propridium iodide. NT = non-treated cells; IngX = ingrilimine. • Figure 5 represents the antagonistic activity of ingrilimine (named "IngX" in the figure) and portimine (named "Port A" in the figure) against nicotinic acetylcholine receptors recorded by two-electrodes voltage clamp electrophysiology on Xenopus laevis oocytes. Clamped Xenopus laevis oocytes having incorporated the muscle (α1)2βγδ nAChR subtype from Torpedo marmorata (filled squares), or expressing the neuronal α3β2 nAChR subtype from rat (filled triangles), or expressing the human neuronal α7 nAChR subtype (filled circles) were exposed to portimine (100 nM - 1 mM) for 45 seconds. […] A Xenopus laevis oocyte expressing the human α7 nAChR subtype was exposed to 100 µM acetylcholine triggering the immediate opening of the receptor's channel (black bold line) followed by the very-fast closure of the channel ([…]) that became insensitive to acetylcholine during the rest of the 5 seconds exposure (desensitization). When a Xenopus laevis oocyte expressing the human α7 nAChR subtype was exposed first to 10 nM ingrilimine for 45 seconds and then to a mixture (Mix) containing 10 nM ingrilimine and 100 µM acetylcholine, the receptor's channel was closed denoting a strong antagonistic activity of the tested toxin against the α7 nAChR subtype (dotted line). […]

For data set [2], the system named is HT29 colorectal carcinoma cells. As to conditions: for IC50: 72 h incubation, mean ± SEM from three distinct experiments. As for the experimental part:
as §1

For data set [3], the system named is U87-MG glioblastoma cells. The note with it: for IC50: 72 h incubation, mean ± SEM from three distinct experiments. As for the experimental part:
as §1

Read-outs that look alike come from different tables or passages of the source.

One may read the IC50 as the concentration needed to halve the response being measured. `C=CC1=C[C@@H]2C[C@@H](O)[C@@H](O)/C(C)=C/C/C(C)=C/CCC3=NCCC[C@]32CC1` [Ingrilimine, ingrilimine]: the IC50 is 10.6 ± 0.2 nM in data set [1] (Homo sapiens, A2780, 72 h incubation, mean ± SEM from three distinct experiments, read-out: IC50 ± SEM (nM) A2780); 10 to 45 nM in data set [1] (Homo sapiens, A2780, HT29 and U87-MG together, read-out: IC50 values, range over the three cancer cell lines tested); 34.3 ± 1.1 nM in data set [2] (Homo sapiens, HT-29); 44.2 ± 0.3 nM in data set [3] (Homo sapiens, U-87 MG). The “times less potent than portimine-A to kill the A2780 ovarian cancer cells” value in data set [1] (ratio of IC50) was found to be 13 times. The “cytotoxic activity, times less potent compared to portimine-A” value in data set [2] (HT29, ratio of IC50) was 5 times; in data set [3] (U87-MG, ratio of IC50), 5 times.

Take `C=CC1=C[C@@H]2[C@@H]3O[C@]4(CC[C@H](O4)[C@@H](C)C[C@@H](O)C3=O)C[C@H](O)C3=NCC[C@@]32CC1` [Portimine-A]: the IC50 in data set [1] (72 h incubation, mean ± SEM from three distinct experiments, read-out: IC50 ± SEM (nM) A2780) amounted to 0.77 ± 0.1 nM; in data set [2] it was 6.4 ± 0.1 nM; in data set [3], 8.1 ± 7.8 nM.
